In patent publication US6087119A, “Method for determining the catalytic activity of factor IXa” (Roche Diagnostics GmbH, priority 1996, dated 2000):
Values joined by “and” are separate entries in the source; they are usually repeats but may differ in a detail not shown here. Equal values may be shown once. Read-outs that look alike come from different tables or passages of the source.

Experiments:
thrombin (bovine) = thrombin (bovine) (Bos taurus, UniProt P00735); conditions: thrombin 0.045 μmol/l, MeSO2-D-HHT-Gly-Arg-pNA 1.02 mmol/l, pH 7.4
Description: Thrombin Test Mixture (Concentration in the Test)
(§1) 42 mmol/l Tris-HCl, pH 7.4
(§2) 1.02 mmol/l MeSO2 -D-HHT-Gly-Arg-pNA
0.045 μmol/l thrombin (bovine)
(§3) 0-50% ethanol or ethylene glycol

[1] = target: plasma kallikrein (human) (Homo sapiens, UniProt P03952); conditions: PKallikrein 0.0176 U/ml, MeSO2-D-HHT-Gly-Arg-pNA 1.02 mmol/l, pH 7.4
Description: Plasma Kallikrein Test Mixture (Concentration in the Test)
as §1, §2
0.0176 U/ml plasma kallikrein (human)
as §3

rFIXa (human) [2] = target: T1, rFIXa (human) (Homo sapiens, UniProt P00740); test: Influence of alcohols and organic solvents on the activity of rFIXa, chromogenic peptide substrates; assay type: biochemical; set-up: coding for the FIX protease domain from amino acid position 181 to 415; Met (ATG start codon) (N); made in house; conditions: for V/V0: pH 7.4
Procedure: The reaction was started by adding FIXa.
MeSO2 -D-HHT-Gly-Arg-pNA→MeSO2 -D-HHT-Gly-Arg+pNA measurement signal: pNA
0.48 μmol/l rFIXa (human)
0-50% (alcohol or organic solvent)
The ratio V/V0 was calculated to illustrate the stimulation of the catalytic activity of rFIXa.
V0, reaction rate without additives
V, reaction rate in the presence of additives
Test Mixture Chromogenic (Concentration in the Test)
Target sequence in this assay (P00740 227-461 limits assumed): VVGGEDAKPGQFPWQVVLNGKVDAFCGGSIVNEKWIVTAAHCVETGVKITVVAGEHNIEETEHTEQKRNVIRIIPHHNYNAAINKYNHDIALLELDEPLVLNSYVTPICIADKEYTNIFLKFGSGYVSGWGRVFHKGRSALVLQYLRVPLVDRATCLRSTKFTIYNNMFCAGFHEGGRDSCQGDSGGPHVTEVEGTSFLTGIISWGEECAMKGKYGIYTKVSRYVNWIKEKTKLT
Target sequence in this assay (P00740 131-226 partner limits assumed): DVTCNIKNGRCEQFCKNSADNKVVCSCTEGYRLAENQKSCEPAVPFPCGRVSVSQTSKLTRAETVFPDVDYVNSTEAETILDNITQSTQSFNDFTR

rFIXa (human) [3] = target: T1, rFIXa (human); conditions: fluorogenic MeSO2-D-CHA-Gly-Arg-AMC 0.51 mmol/l, 0.08 μmol/l rFIXa, pH 7.4
Description: The stimulation of human rFIXa by ethanol and ethylene glycol was examined using the peptide substrates MeSO2 -D-HHT-Gly-Arg-pNA (Pefachrom tPA, Pentapharm Ltd., Basel, Switzerland), MOC-D-Nle-Gly-Arg-pNA (Chromozym X, Boehringer Mannheim GmbH, Mannheim, Germany, Cat.No. 789763), MeSO2 -D-CHG-Gly-Arg-pNA (Pentapharm Ltd., Basel, Switzerland), MeSO2 -D-CHA-Gly-Arg-pNA (Pentapharm Ltd., Basel, Switzerland) and MeSO2 -D-CHA-Gly-Arg-AMC (Pentapharm Ltd., Basel, Switzerland).
Test Mixture Fluorogenic (Concentration in the Test)
0.51 mmol/l MeSO2 -D-CHA-Gly-Arg-AMC
0.08 μmol/l rFIXa (human)
Target sequence in this assay (P00740 227-461): as the sequence (P00740 227-461 limits assumed) above
Target sequence in this assay (P00740 131-226): as the sequence (P00740 131-226 partner limits assumed) above

FXIa (human) = FXIa (human) (Homo sapiens, UniProt P03951); conditions: FXIa 0.0012 μmol/l, MeSO2-D-HHT-Gly-Arg-pNA 1.02 mmol/l, pH 7.4
Description: FXIa Test Mixture (Concentration in the Test)
as §1, §2
0.0012 μmol/l FXIa (human)
as §3

FXa (bovine) = FXa (bovine) (Bos taurus, UniProt P00743); conditions: FXa 0.088 μmol/l, MeSO2-D-HHT-Gly-Arg-pNA 1.02 mmol/l, pH 7.4
Description: FXa Test Mixture (concentration in the Test)
as §1, §2
0.088 μmol/l FXa (bovine)
as §3

native FIXa (human) = native FIXa (human) (Homo sapiens, UniProt P00740); conditions: pH 7.4; for V/V0: MeSO2-D-HHT-Gly-Arg-pNA 1.02 mmol/l, 0.14 μmol/l native FIXa
Procedure: The FIXa test was carried out with recombinantly produced native human FIXa as a sample and the peptide substrate MeSO2 -D-HHT-Gly-Arg-pNA (Pefachrom tPA, Pentapharm Ltd., Basel, Switzerland) or other chromogenic/fluorogenic substrates of the R-D-Xxx-Gly-Arg-pNA type (EP-B 0 034 122) in Tris-HCl buffer and the substances to be tested (alcohol, solvents and inhibitors). The reaction was started by adding FIXa.
The test mixture was incubated at room temperature (25° C.) in a microtitre plate and the change in absorbance (ΔA/min) was measured at 405 nm using an ELISA reader. The activity and the kinetic constants were determined from the linear initial slope according to the Michaelis-Menten equation.
as §2
0.14 μmol/l native FIXa (human)
as §3
FIXa Test Mixture (Concentration in the Test)

FXIIa (human) = FXIIa (human) (Homo sapiens, UniProt P00748); conditions: FXIIa 0.0045 U/ml, MeSO2-D-HHT-Gly-Arg-pNA 1.02 mmol/l, pH 7.4
Description: FXIIa Test Mixture (Concentration in the Test)
as §1, §2
0.0045 U/ml FXIIa (human)
as §3

Sequence of FXa (bovine) (P00743 234-492 limits assumed): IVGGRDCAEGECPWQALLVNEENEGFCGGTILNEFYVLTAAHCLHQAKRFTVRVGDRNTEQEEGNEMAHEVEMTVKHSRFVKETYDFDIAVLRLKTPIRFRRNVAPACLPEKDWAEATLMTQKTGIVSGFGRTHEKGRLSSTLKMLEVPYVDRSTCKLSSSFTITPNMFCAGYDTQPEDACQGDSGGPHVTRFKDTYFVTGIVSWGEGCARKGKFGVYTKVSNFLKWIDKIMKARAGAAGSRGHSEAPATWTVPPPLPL
Sequence of FXa (bovine) (P00743 41-180 partner limits assumed): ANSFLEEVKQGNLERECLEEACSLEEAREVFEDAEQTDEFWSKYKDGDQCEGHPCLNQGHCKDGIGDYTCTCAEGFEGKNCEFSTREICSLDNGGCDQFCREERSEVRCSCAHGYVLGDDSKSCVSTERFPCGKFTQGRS
Sequence of native FIXa (human) (P00740 227-461 limits assumed): as the sequence (P00740 227-461 limits assumed) above
Sequence of native FIXa (human) (P00740 47-191 partner limits assumed): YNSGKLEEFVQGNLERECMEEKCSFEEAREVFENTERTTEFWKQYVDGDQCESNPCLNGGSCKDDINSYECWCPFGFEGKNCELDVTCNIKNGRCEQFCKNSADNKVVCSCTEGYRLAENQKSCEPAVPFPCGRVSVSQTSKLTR
Sequence of FXIa (human) (P03951 388-625 limits assumed): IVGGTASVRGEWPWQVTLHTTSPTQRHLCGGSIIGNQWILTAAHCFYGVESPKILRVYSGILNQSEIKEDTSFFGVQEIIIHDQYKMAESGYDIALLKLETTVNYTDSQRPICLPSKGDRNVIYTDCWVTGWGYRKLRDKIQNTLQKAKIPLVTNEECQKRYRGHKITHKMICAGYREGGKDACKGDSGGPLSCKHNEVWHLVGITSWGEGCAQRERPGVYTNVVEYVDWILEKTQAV
Sequence of FXIa (human) (P03951 19-387 partner limits assumed): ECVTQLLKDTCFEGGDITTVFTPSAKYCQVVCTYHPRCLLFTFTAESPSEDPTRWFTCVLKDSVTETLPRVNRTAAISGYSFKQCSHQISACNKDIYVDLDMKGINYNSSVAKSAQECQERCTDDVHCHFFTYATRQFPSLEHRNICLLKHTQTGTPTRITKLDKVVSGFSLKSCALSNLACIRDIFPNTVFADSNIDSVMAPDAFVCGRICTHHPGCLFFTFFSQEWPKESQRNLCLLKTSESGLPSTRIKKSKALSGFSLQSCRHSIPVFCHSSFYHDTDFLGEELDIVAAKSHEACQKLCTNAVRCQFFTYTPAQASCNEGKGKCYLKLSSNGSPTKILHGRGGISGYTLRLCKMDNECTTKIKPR
Sequence of FXIIa (human) (P00748 373-615 limits assumed, other chains not shown): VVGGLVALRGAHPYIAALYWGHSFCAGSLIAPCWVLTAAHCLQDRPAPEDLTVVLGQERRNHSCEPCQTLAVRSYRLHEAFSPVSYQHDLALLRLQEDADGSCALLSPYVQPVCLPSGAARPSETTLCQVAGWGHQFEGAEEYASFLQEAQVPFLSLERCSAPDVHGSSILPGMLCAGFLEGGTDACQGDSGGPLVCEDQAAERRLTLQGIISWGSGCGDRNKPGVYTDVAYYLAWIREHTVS
Sequence of plasma kallikrein (human) (P03952 391-638 limits assumed): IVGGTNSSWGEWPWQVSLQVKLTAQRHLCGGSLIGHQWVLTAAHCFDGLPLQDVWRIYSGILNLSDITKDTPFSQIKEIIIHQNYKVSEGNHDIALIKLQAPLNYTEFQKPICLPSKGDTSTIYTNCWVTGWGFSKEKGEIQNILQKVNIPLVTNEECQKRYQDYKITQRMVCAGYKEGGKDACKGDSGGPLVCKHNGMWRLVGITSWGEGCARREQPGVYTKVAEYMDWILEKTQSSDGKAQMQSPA
Sequence of plasma kallikrein (human) (P03952 20-390 partner limits assumed): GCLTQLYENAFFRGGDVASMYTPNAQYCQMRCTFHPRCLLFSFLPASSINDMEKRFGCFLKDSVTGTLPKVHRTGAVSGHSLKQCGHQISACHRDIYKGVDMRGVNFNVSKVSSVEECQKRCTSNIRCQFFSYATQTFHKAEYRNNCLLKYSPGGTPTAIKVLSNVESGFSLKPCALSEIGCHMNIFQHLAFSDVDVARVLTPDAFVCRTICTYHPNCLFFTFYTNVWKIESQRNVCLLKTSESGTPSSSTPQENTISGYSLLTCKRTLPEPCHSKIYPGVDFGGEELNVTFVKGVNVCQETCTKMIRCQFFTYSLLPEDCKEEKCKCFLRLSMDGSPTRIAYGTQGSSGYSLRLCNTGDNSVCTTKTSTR

OCCO [Ethylene glycol]
V/V0 (thrombin (bovine); 8% alcohol): 0.924
V/V0 (thrombin (bovine); 16% alcohol): 0.862
V/V0 (thrombin (bovine); 25% alcohol): 0.763
V/V0 (thrombin (bovine); 33% alcohol): 0.653
V/V0 (thrombin (bovine); 41% alcohol): 0.508
V/V0 (thrombin (bovine); 50% alcohol): 0.395
V/V0 ([1]; 8% alcohol): 1.05
V/V0 ([1]; 16% alcohol): 0.763
V/V0 ([1]; 25% alcohol): 0.676
V/V0 ([1]; 33% alcohol): 0.536
V/V0 ([1]; 41% alcohol): 0.478
V/V0 ([1]; 50% alcohol): 0.290
V/V0 (rFIXa (human) [2]; 8% additive, MOC-D-Nle-Gly-Arg-pNA 0.82 mmol/l, 0.48 μmol/l rFIXa): 3.91
V/V0 (rFIXa (human) [2]; 8% additive, MeSO2-D-CHA-Gly-Arg-pNA 1.02 mmol/l, 0.48 μmol/l rFIXa): 2.84
V/V0 (rFIXa (human) [2]; 8% additive, MeSO2-D-CHG-Gly-Arg-pNA 1.02 mmol/l, […] rFIXa): 5.47
V/V0 (rFIXa (human) [2]; 8% additive, MeSO2-D-HHT-Gly-Arg-pNA 1.02 mmol/l, 0.48 μmol/l rFIXa): 2.91
V/V0 (rFIXa (human) [2]; 16% additive, MOC-D-Nle-Gly-Arg-pNA 0.82 mmol/l, 0.48 μmol/l rFIXa): 8.85
V/V0 (rFIXa (human) [2]; 16% additive, MeSO2-D-CHA-Gly-Arg-pNA 1.02 mmol/l, 0.48 μmol/l rFIXa): 6.26
V/V0 (rFIXa (human) [2]; 16% additive, MeSO2-D-CHG-Gly-Arg-pNA 1.02 mmol/l, […] rFIXa): 13.13
V/V0 (rFIXa (human) [2]; 16% additive, MeSO2-D-HHT-Gly-Arg-pNA 1.02 mmol/l, 0.48 μmol/l rFIXa): 6.05
V/V0 (rFIXa (human) [2]; 25% additive, MOC-D-Nle-Gly-Arg-pNA 0.82 mmol/l, 0.48 μmol/l rFIXa): 17.07
V/V0 (rFIXa (human) [2]; 25% additive, MeSO2-D-CHA-Gly-Arg-pNA 1.02 mmol/l, 0.48 μmol/l rFIXa): 9.34
V/V0 (rFIXa (human) [2]; 25% additive, MeSO2-D-CHG-Gly-Arg-pNA 1.02 mmol/l, […] rFIXa): 19.37
V/V0 (rFIXa (human) [2]; 25% additive, MeSO2-D-HHT-Gly-Arg-pNA 1.02 mmol/l, 0.48 μmol/l rFIXa): 10.27
V/V0 (rFIXa (human) [2]; 33% additive, MOC-D-Nle-Gly-Arg-pNA 0.82 mmol/l, 0.48 μmol/l rFIXa): 22.42
V/V0 (rFIXa (human) [2]; 33% additive, MeSO2-D-CHA-Gly-Arg-pNA 1.02 mmol/l, 0.48 μmol/l rFIXa): 11.18 and 11
V/V0 (rFIXa (human) [2]; 33% additive, MeSO2-D-CHG-Gly-Arg-pNA 1.02 mmol/l, […] rFIXa): 23.20
V/V0 (rFIXa (human) [2]; 33% additive, MeSO2-D-HHT-Gly-Arg-pNA 1.02 mmol/l, 0.48 μmol/l rFIXa): 12.68
V/V0 (rFIXa (human) [2]; 41% additive, MOC-D-Nle-Gly-Arg-pNA 0.82 mmol/l, 0.48 μmol/l rFIXa): 17.80
V/V0 (rFIXa (human) [2]; 41% additive, MeSO2-D-CHA-Gly-Arg-pNA 1.02 mmol/l, 0.48 μmol/l rFIXa): 7.54
V/V0 (rFIXa (human) [2]; 41% additive, MeSO2-D-CHG-Gly-Arg-pNA 1.02 mmol/l, […] rFIXa): 17.40
V/V0 (rFIXa (human) [2]; 41% additive, MeSO2-D-HHT-Gly-Arg-pNA 1.02 mmol/l, 0.48 μmol/l rFIXa): 9.68
V/V0 (rFIXa (human) [2]; 50% additive, MOC-D-Nle-Gly-Arg-pNA 0.82 mmol/l, 0.48 μmol/l rFIXa): 6.96
V/V0 (rFIXa (human) [2]; 50% additive, MeSO2-D-CHA-Gly-Arg-pNA 1.02 mmol/l, 0.48 μmol/l rFIXa): 2.56
V/V0 (rFIXa (human) [2]; 50% additive, MeSO2-D-CHG-Gly-Arg-pNA 1.02 mmol/l, […] rFIXa): 5.67
V/V0 (rFIXa (human) [2]; 50% additive, MeSO2-D-HHT-Gly-Arg-pNA 1.02 mmol/l, 0.48 μmol/l rFIXa): 3.41
quotient V/V0 relative to that with substrate MeSO2-D-HHT-Gly-Arg-pNA (rFIXa (human) [2]; above 25% ethylene glycol, substrates MOC-D-Nle-Gly-Arg-pNA and MeSO2-D-CHG-Gly-Arg-pNA): 1.5-2 fold
stimulation of the activity of rFIXa (rFIXa (human) [2]; concentration range of 15-40%): 5-15 fold
V/V0 (rFIXa (human) [3]; 8% additive): 2.55
V/V0 (rFIXa (human) [3]; 16% additive): 5.59
V/V0 (rFIXa (human) [3]; 25% additive): 8.40
V/V0 (rFIXa (human) [3]; 33% additive): 8.90 and 9
V/V0 (rFIXa (human) [3]; 41% additive): 5.79
V/V0 (rFIXa (human) [3]; 50% additive): 1.44
V/V0 (FXIa (human); 8% alcohol): 0.922
V/V0 (FXIa (human); 16% alcohol): 0.790
V/V0 (FXIa (human); 25% alcohol): 0.569
V/V0 (FXIa (human); 33% alcohol): 0.422
V/V0 (FXIa (human); 41% alcohol): 0.275
V/V0 (FXIa (human); 50% alcohol): 0.165
V/V0 (FXa (bovine); 8% alcohol): 0.973
V/V0 (FXa (bovine); 16% alcohol): 0.902
V/V0 (FXa (bovine); 25% alcohol): 0.741
V/V0 (FXa (bovine); 33% alcohol): 0.558
V/V0 (FXa (bovine); 41% alcohol): 0.347
V/V0 (FXa (bovine); 50% alcohol): 0.191
activation among plasma kallikrein, FXIIa, FXIa, FIXa, FXa and thrombin (in words) (native FIXa (human); 0-50% alcohol, MeSO2-D-HHT-Gly-Arg-pNA): only FIXa is activated
V/V0 (native FIXa (human); 8% additive): 3.13
V/V0 (native FIXa (human); 16% additive): 6.19
V/V0 (native FIXa (human); 25% additive): 9.36
V/V0 (native FIXa (human); 33% additive): 12.21
V/V0 (native FIXa (human); 41% additive): 8.29
V/V0 (native FIXa (human); 50% additive): 3.92
V/V0 (FXIIa (human); 8% alcohol): 0.892
V/V0 (FXIIa (human); 16% alcohol): 0.729
V/V0 (FXIIa (human); 25% alcohol): 0.551
V/V0 (FXIIa (human); 33% alcohol): 0.355
V/V0 (FXIIa (human); 41% alcohol): 0.187
V/V0 (FXIIa (human); 50% alcohol): 0.103
